For series [1], the system named is HCT-116. Nature of the series: CCK8 proliferation inhibition, HCT-116. The following applies: Homo sapiens, 192 h, CCK8, 8 days after drug treatment. The series is classed as cell-based. How it is done: (§1) The above normally growing cells were digested with a cell trypsinization solution, centrifuged, counted, and seeded into a 96-well plate at an appropriate cell density (2000 cells/well) at 100 µL/well. The next day after cell seeding, the compounds at different concentrations were added to the wells. Three replicate wells were set for each concentration point, and a corresponding DMSO negative control group was also set. CCK8 solution was added to each well 8 days after drug treatment. The plate was incubated at 37 °C for a period of time (OD450 of the vehicle group reached 1.0 or higher) before the absorbance at 450 nm was read using a microplate reader. The inhibition rates were calculated, and the EC50 values were determined by fitting using the GraphPad Prism 7.0 software. Table 2. EC50 values of compounds at cellular level

The subject of series [2] is HCT-116-MTAP^-/-. Nature of the series: CCK8 proliferation inhibition, HCT-116-MTAP^-/-. The following applies: Homo sapiens, 192 h; HCT-116-MTAP^-/- (MTAP-deficient); CCK8, 8 days after drug treatment. The class given is cell-based. The protocol:
as §1

In series [3] the test system is SDMA. Description: SDMA Inhibition Assay in HCT-116 cells. The following applies: Homo sapiens, HCT-116, 96 hours. The series is classed as cell-based. The protocol: (§2) The next day, the cells were treated with the compounds at different concentrations (with an initial concentration of 10 µM, 5-fold dilution, 9 concentration gradients). After 96 hours, the culture medium was pipetted out and the cells were washed 2 times with 100 µL of PBS. The cells were then fixed with 4% paraformaldehyde and incubated at room temperature for 20 min. The fixative solution was discarded, and the cells were washed with PBS. 150 µL of specialized blocking solution (containing 1% Triton-100) was added to each well for blocking at room temperature for 2 hours, and the plate was washed with PBS to remove excess blocking solution. […] The cells were incubated at 4 °C overnight. The next day, the cells were separately washed 2 times with 1× PBST. […] The cells were incubated at room temperature for 2 hours. The cells were washed 2 times with 1× PBST and 1 time with PBS. Fluorescence signals at 700 nm and 800 nm were separately detected using a Li-COR Odyssey two-color near-infrared laser imager. The inhibition rates were calculated, and the EC50 values were determined by fitting using the GraphPad Prism 7.0 software. Table 3. Inhibition of SDMA by test compounds

Series [4] relates to SDMA. Description: SDMA Inhibition Assay in HCT-116-MTAP^-/- cells. The series is classed as cell-based. The conditions noted are these: Homo sapiens, 96 hours. The protocol:
as §2

For series [5], the system named is SDMA. Description: SDMA Inhibition Assay in A549 cells. The class given is cell-based. The conditions noted are these: Homo sapiens, A549, 96 hours. The protocol:
as §2

A short description of series [6]: Pharmacokinetic assay in mice. The series is classed as in vivo, Balb/c mice. The following applies: mouse; for MRT inf: read-out: MRT(0-∞). The protocol:
Eighteen male Balb/c mice aged 6 to 8 weeks were randomly divided into 2 groups (IV group and PO group). The corresponding compounds were administered to the animals in the IV group by tail intravenous injection at 2 mg/kg, and the corresponding compounds were administered to the animals in the PO group by oral gavage at 10 mg/kg or 100 mg/kg. The animals in the IV group were allowed free access to food and water, and the animals in the PO group were fasted overnight before administration and were fed 4 h after administration. Throughout the experiment, the animals were allowed free access to water. Plasma samples were separately collected at 0.083 h (only group IV), 0.25 h, 0.5 h, 1 h, 2 h, 4 h, 8 h, and 24 h after administration. About 100 µL of blood was collected from the orbit of the animal, placed into a 1.5 mL anticoagulation centrifuge tube, and centrifuged at 8000 rpm and 4 °C for 10 min. The upper plasma sample was transferred to an EP tube. The plasma samples were stored in a refrigerator at -80 °C until sample analysis. Pharmacokinetic parameters of the drug were calculated based on the drug concentration-time data, including the peak concentration Cmax, peak time Tmax, clearance rate CL, steady state apparent volume of distribution Vss, area under drug-time curve AUC, elimination half-life t1/2, bioavailability, and the like. Data below the 80% lower limit of quantification were excluded from the calculation of pharmacokinetic parameters.

[7] abbreviates: male, Balb/c, plasma, 2 mg/kg, IV 2mpk.
The mark [8] stands for this setting: male, Balb/c, plasma, 10 mg/kg, PO 10mpk.

As usually defined, the EC50 is the concentration needed to bring the measured effect to its halfway point. Broadly, the AUC(0-t) is the area under the concentration-time curve up to a stated or last time point. A word on the Cmax: it is the highest concentration seen after dosing. Usually AUC(0-inf) stands for the area under the concentration-time curve extrapolated to infinity. Lower therefore signals low exposure. In general, Tmax refers to the time at which the peak concentration occurs.

Read-outs that look alike come from different tables or passages of the source.

`CC1OCc2c1c(N)nc1cc(F)c(C(=O)N(Cc3ccc4c(c3)OC(F)(F)O4)C3CC3)cc21` (racemic) [Example I-36]: the half-maximal effective concentration (EC50) in series [1] was greater than 10 µM; in series [2], 0.0242 µM.

Consider `Cn1ncc2c(N)nc3cnc(C(=O)N4CCN(C5(C)CC5)CC4c4ccc5c(c4)OC(F)(F)O5)cc3c21` (racemic) [Example I-113], for which the EC50 is greater than 10 µM in series [1], 0.0505 µM in series [2], 0.403 µM in series [3] and 0.0041 µM in series [4].

On to `Cn1ncc2c(N)nc3ccc(C(=O)N4CCOCC4c4ccc5c(c4)OC(F)(F)O5)cc3c21` (single isomer, unassigned) [I-4 (PEAK1)], for which the 50% effective concentration (EC50) was determined as 6.41 µM in series [1]; 0.0477 µM in series [2]; 0.906 µM in series [3]; 0.0091 µM in series [4]; 0.0061 µM in series [5].

As to `Nc1nc2cnc(C(=O)N3CCOC[C@@H]3c3ccc(C(F)(F)F)cc3)cc2c2c1COC2` [Control compound B, reference compound], the AUC(0-t) in series [6] (setting [7]) was determined as 6.9 µM·h; in series [6] (setting [8]) it was 26.5 µM·h. Besides, in series [6] (setting [8]), the Cmax was determined as 5.76 µM.

Consider `Cn1ncc2c(N)nc3cc(F)c(C(=O)N4CCOCC4c4ccc5c(c4)OC(F)(F)O5)cc3c21` (centres unmarked) [Example I-3], for which the 50% effective concentration (EC50) came out at 2.37 µM in series [1]; 0.0084 µM in series [2]; 0.101 µM in series [3]; 0.0006 µM in series [4]; 0.0021 µM in series [5].

As to `Cn1ncc2c(N)nc3ccc(C(=O)N4CCOCC4c4ccc5c(c4)OC(F)(F)O5)cc3c21` (centres unmarked) [Example I-4], the EC50 in series [1] is greater than 10 µM; in series [2] it was 0.027 µM; in series [3], 0.381 µM; in series [4] it was 0.0074 µM; in series [5] it was 0.007 µM.

Consider `CCN(Cc1ccc2c(c1)OC(F)(F)O2)C(=O)c1ccc2nc(N)c3cnn(C)c3c2c1` [Example I-5], for which, in series [1], the EC50 was 2.36 µM. Also, the midpoint of the response in series [2], the EC50, lay at 0.0047 µM. This molecule came in with a half-maximal effective concentration (EC50) in series [3] of 0.201 µM. In series [4], this molecule yielded an EC50 of 0.0021 µM. The EC50 in series [5] was determined as 0.0026 µM. In series [6] (setting [7]), the AUC(0-inf) came out at 3.62 µM·h, the exposure AUC(0-t) amounted to 3.32 µM·h, the C0 is 1.86 µM and the MRT inf turned out to be 2.9 h. Further, in series [6] (male, Balb/c, plasma, 2 mg/kg, IV 2mpk, read-out: Vz), the Vd worked out at 4.4 L/kg. Besides, in series [6] (setting [8]), the AUC(0-inf) was determined as 12.4 µM·h, the AUC(0-t) was determined as 12.4 µM·h, the peak concentration (Cmax) stood at 1.93 µM and the Tmax came out at 1 h. For the same molecule, the MRT inf in series [6] (setting [8]) was found to be 4.8 h. For the same molecule, in series [6] (IV 2mpk), the CLz was determined as 1.3 L/h/kg, the “R_AUC(t/∞)” value turned out to be 91.7% and the t1/2z was 2.4 h. For the same molecule, in series [6] (PO 10mpk), the “R_AUC(t/∞)” value is reported as 99.9% and the t1/2z is reported as 2.4 h. Moreover, the F in series [6] (PO 10mpk vs IV 2mpk) was 68.6%.

Consider `Cn1ncc2c(N)nc3ccc(C(=O)N(Cc4ccc5c(c4)OC(F)(F)O5)C4CC4)cc3c21` [Example I-15], for which the concentration giving a half-maximal response (EC50) in series [1] was 5.76 µM; in series [2], 0.034 µM; in series [3] it was 0.628 µM; in series [4], 0.0103 µM; in series [5], 0.0076 µM.

With `CN(Cc1ccc2c(cnn2C)c1)C(=O)c1cc2c(cc1F)nc(N)c1cnn(C)c12` [Example I-18], the 50% effective concentration (EC50) in series [1] stood at 3.45 µM; in series [2], 0.0183 µM; in series [3], 1.02 µM; in series [4], 0.0031 µM; in series [5], 0.0031 µM.

As for `CN(Cc1ccc2cnn(C)c2c1)C(=O)c1cc2c(cc1F)nc(N)c1cnn(C)c12` [Example I-19], the EC50 was greater than 10 µM in series [1]; 0.0482 µM in series [2]; 0.828 µM in series [3]; 0.0066 µM in series [4]; 0.0072 µM in series [5].

Take `CN(Cc1ccc2nn(C)cc2c1)C(=O)c1cc2c(cc1F)nc(N)c1cnn(C)c12` [Example I-20]: the EC50 was greater than 10 µM in series [1]; 0.0161 µM in series [2]; 0.862 µM in series [3]; 0.0055 µM in series [4]; 0.0092 µM in series [5].

For the molecule `Cn1ncc2c(N)nc3cc(F)c(C(=O)N(CCN4CCOCC4)Cc4ccc5c(c4)OC(F)(F)O5)cc3c21` [Example I-21], the half-maximal effective concentration (EC50) stood at 2.61 µM in series [1]; 0.022 µM in series [2]; 0.292 µM in series [3]; 0.003 µM in series [4]; 0.0019 µM in series [5].

With `CN1CCN(CCN(Cc2ccc3c(c2)OC(F)(F)O3)C(=O)c2cc3c(cc2F)nc(N)c2cnn(C)c23)CC1` [Example I-31], the EC50 in series [1] was 2.71 µM; in series [2], 0.0358 µM; in series [3], 1.12 µM; in series [4], 0.0087 µM; in series [5], 0.0067 µM.

Turning to `Nc1nc2cnc(C(=O)N3CCOC[C@@H]3c3ccc4c(c3)OC(F)(F)O4)cc2c2c1COC2` [Example I-109], the EC50 in series [1] was 4.85 µM; in series [2], 0.0192 µM; in series [3], 0.938 µM; in series [4], 0.015 µM; in series [5] it was 0.0028 µM. In addition, the exposure AUC(0-t) in series [6] (plasma, 2 mg/kg, IV 2mpk) turned out to be 13.4 µM·h; in series [6] (plasma, 10 mg/kg, PO 10mpk), 44.1 µM·h. Further, the peak concentration (Cmax) in series [6] (plasma, 10 mg/kg, PO 10mpk) stood at 14.7 µM.

Regarding `Cn1ncc2c(N)nc3cnc(C(=O)N4CC5(CC5)OCC4c4ccc5c(c4)OC(F)(F)O5)cc3c21` (centres unmarked) [Example I-110], the EC50 was greater than 1 µM in series [3], 0.036 µM in series [4] and 0.019 µM in series [5].

The record behind these values is EP4700025A1, “AMIDE COMPOUND, PHARMACEUTICAL COMPOSITION COMPRISING SAME, AND USE THEREOF” (Suzhou Genhouse Bio Co., Ltd., priority 2023, dated 2024).
